Data published in patent US8809368B2, “Compounds affecting gap junction activity” (Kansas State University Research Foundation, priority 2006, dated 2014).

Legend:
Cx32 = assay: Western blot of Cx32 in T47D cells; format: cell-based, human; conditions: 10, 100, 200 and 500 nM, 24 hours
Procedure: (§1) T47D cells were dosed with PQ1 for 24 hours. The Western blot analysis was performed as described in Materials and Methods. Whole cell extract was analyzed for Cx 43, Cx32, and Cx26. Experiment was performed at least three times.
(§2) Furthermore, whole cell extract of PQ1 treatment was analyzed for the changes in gap junctional proteins, connexins. Cells were treated with 10, 100, 200, and 500 nM PQ1 for 24 hours. Western blot analysis was performed against Cx26, Cx32, and Cx43 (FIG. 17). […] Anti-tubulin was used as a loading control.
(§3) Western Blot Analysis. Cells were grown in serum supplemented RPMI media until they were 90% confluent in 75 cm^2 flasks. Cells were kept in starving media containing phenol red-free DMEM with 5% charcoal dextran stripped serum, overnight. Cells were dosed with 0, 10, 100, 200 and 500 nM of PQ1 for 24 hours. Cells were washed three times with cold PBS and then were harvested using lysis buffer (20 mM Tris pH 7.5, 0.5 mM EDTA, 0.5 mM EGTA, 0.5% Triton X-100) with 1:1000 dilution of protease inhibitors (Sigma-Aldrich, Saint Louis, Mo.). Cell lysate was sonicated and centrifuged at 13,000 rpm for 30 minutes at 4° C. […] Western blots were detected by enhanced chemiluminescence detection reagents (Pierce, Rockford, Ill., USA).

T47D cells = assay: Transepithelial electrical resistance (TEER), T47D monolayers; format: cell-based, human; conditions: 100, 200 or 500 nM, 48 hours, compared to control
Procedure: T47D cells were treated with 0, 100, 200, and 500 nM PQ1 for 48 hours. TEER assay was performed as described herein. TEER values of each treatment in KΩ/cm^2 were converted to relative percent of control.
Measurement of transepithelial electrical resistance. Cells were grown to 100% confluency on a 12-well transwell (BD Biosciences, San Jose, Calif.) and treated with 0, 100, 200, and 500 nM PQ1 for 48 hours. Transepithelial electrical resistance (TEER) of the T47D monolayers was measured by a high-precision. Resulting voltages were recorded with the aid of a differential amplifier with a high input resistance. Data were corrected for well area (given in Ω·cm^2).

MEC = assay: MTT assay, cell viability, MEC; format: cell-based, human; conditions: for cell viability compared to control: 24 hours
Procedure: The cytotoxicity of PQ1 in MEC and T47D cells using MTT assay was also determined. Cells were treated with 10, 100, 200, and 500 nM PQ1 for 24 hours. MTT assay was performed according to the manufacture's recommendations. A 200 nM PQ1 has 67% cell viability compared to controls (FIG. 16). Treatments of 100 and 200 nM PQ1 have 95% and 103% MEC cell viability compared to control. However, both MEC and T47D cells decrease cell viability to 50% and 65% at 1 μM PQ1, respectively. Thus, 100-200 nM of PQ1 is sufficient to enhance GJIC activity.
MTT assay. MTT (3-(4,5-dimethyl thiazol-2-yl)-2,5-diphenyl tetrazolium bromide) assay was performed with adherent cell cultures using a culture medium free of phenol red and of serum. Solution containing MTT was metabolized by the cells (incubation period 3 hours). MTT is a tetrazolium salt (yellowish) that is cleaved to formazan crystals by the succinate dehydrogenase system which belongs to the mitochondrial respiratory chain, and is only active in viable cells. The mitochondrial succinate dehydrogenase reduces the MTT crystals into purple formazan in the presence of an electron coupling reagent. The more viable cells will be presented in a well, the more formazan dye will be produced. After solubilization of the MTT crystals with the solubilization solution MTT, the amount of dye will be measured spectrophotometrically at 540 nm.

T47D breast cancer cells = assay: Xenograft tumor growth of T47D cells in Nu/Nu mice; format: in vivo
Procedure: Mice were inoculated with 17β-estradiol (1.7 mg/pellet) before the injection of 1×10^7 T47D cells subcutaneously into the inguinal region of mammary fat pad. Animals received treatment at 1 μM PQ1 or 10 μM tamoxifen. The results after 6 days of injection show a decrease in tumor growth of PQ1-treated animals compared to control or tamoxifen.
The anti-tumor effect of PQ1 was also observed in animal model. Nu/Nu mice were inoculated with estradiol-17β (1.7 mg/pellet) before the injection of 1×10^7 T47D breast cancer cells subcutaneously into inguinal region of mammary fat pad.
Xenograft Tumors of T47D cells in Nu/Nu Mice. Nu/Nu mice were ordered from The Jackson Laboratory. Mice were inoculated with estradiol-17β (1.7 mg/pellet) before the injection of 1×10^7 T47D breast cancer cells subcutaneously into inguinal region of mammary fat pad. Cell viability of T47D cells were performed prior to injection. The tumor size was measured in three dimensions with calipers every 2 days starting at Day 7. […] When tumors reached 30-50 mm^3, three animals were randomly assigned to each treatment group. Animals were injected with 1 μM of PQ1 or 10 μM of tamoxifen and a single injection of treatment was set for 7 days and daily measurement of tumor size was recorded.

Cx43 = assay: Western blot of Cx43 and phosphorylated Cx43 in T47D cells; format: cell-based, human; conditions: 10, 100, 200 and 500 nM, 24 hours
Procedure: as §1, §2, §3

Solubility in water = format: physicochemical; conditions: succinic acid salt
MDA-MB-231 = assay: Gap junction intercellular communication, MDA-MB-231 cells; format: cell-based, human; conditions: Table 1

| SMILES | Cx32 expression (Cx32) | tight junction ion permeability by TEER (T47D cells) | cell viability compared to control (MEC; 100 nM) [%] | cell viability compared to control (MEC; 200 nM) [%] | cell viability (MEC; 1 μM) [%] | tumor size compared to control (T47D breast cancer cells; Day 2, 1 μM PQ1, single injection) | decrease of tumor growth (T47D breast cancer cells; Day 6 after one injection, 1 μM PQ1, compared to control) [%] | tumor growth compared to control or tamoxifen (T47D breast cancer cells; after 6 days of injection, 1 μM PQ1) | Cx43 expression (Cx43) | solubility in water (Solubility in water) | effect on gap junction intercellular communication (MDA-MB-231) |
| --- | --- | --- | --- | --- | --- | --- | --- | --- | --- | --- | --- |
| COc1cc(NCCCN)c2nccc(C)c2c1Oc1cccc(C(F)(F)F)c1.O=C(O)CCC(=O)O [PQ1, 6-Methoxy-8-[(3-aminopropyl)amino]-4-methyl-5-(3-trifluoromethylphenyloxy) quinoline succinic acid] | no effect | no significant effect | 95 | 103 | 50 | decrease | 70 | decrease | no effect | soluble in water | – |
| COc1cc(N)c2nccc(C)c2c1Oc1cccc(C(F)(F)F)c1 [PQ3, 8-Amino-6-methoxy-4-methyl-5-(3-trifluoromethylphenyloxy)quinoline] | – | – | – | – | – | – | – | – | – | – | No effect |
